A word on the IC50: it is the concentration that gives 50% inhibition.

The text below walks through data of patent publication US8273768B2, “Iso CA-4 and analogues thereof as potent cytotoxic agents inhibiting tubuline polymerization” (Centre National de la Recherche Scientifique (CNRS), priority 2007, dated 2012).

For one experiment, the system named is MDA-MB 231. The experiment in a line: Study of cytotoxicity (CellTiter-Blue, 72 hours). The experiment is classed as cell-based. The settings on record: Homo sapiens, MDA-MB-231; 72 hours of incubation; read-out: IC50 for different cell lines: M231. The procedure:
(§1) The biological activity of the compounds of the invention was studied in vitro on 7 human cancer cell lines with different tissue origins (HCT116: colorectal carcinoma; K562: chronic myeloid leukemia; B16-F10: melanoma; U87: glioblastoma; A549: lung cancer and MDA-MB 231 and MDA-MB 435: breast cancer). The cells selected for the study were incubated at 37° C. in the presence of one of the compounds added into the culture medium at different concentrations. The whole of the conducted experiments allowed determination of the toxicity level of the tested compound, its effect on the course of the cell cycle as well as its capacity of inducing cell death by apoptosis.
(§2) The cancer cell lines originate from the American Type Culture Collection (Rockville, Md., USA) and were grown according to the recommendations of the supplier.
(§3) The cells A549, U87, MDA-MB231, MDA-MB435 and B16F10 were grown in a culture medium “Dulbecco minimal essential medium” (DMEM) containing 4.5 g/L of glucose and supplemented with 10% fetal calf serum and 1% glutamine. The K562 and HCT116 were grown in an RPMI 1640 medium containing 10% fetal calf serum and 1% glutamine. All the cell lines were maintained in the culture at 37° C. in a humid atmosphere containing 5% of CO2. Cell viability was evaluated by using the reagent “CellTiter-Blue™” (Promega, Wis., USA) while observing the instructions of the manufacturer. The cells were sown in 96-well culture plates with 5000 cells per well in 50 μL of culture medium. After 24 hours of culture, the compounds of general formula (I) dissolved in DMSO were individually added into each of the wells in an amount of 50 μl per well. All the compounds were tested in triplicate for each defined concentration and each experiment was repeated three times. After 72 hours of incubation, 20 μL of resazurin were added in each well. After 2 hours of incubation, the emitted fluorescence was measured at 590 nm after excitation at 560 nm by means of a fluorescence reader of the Victor type (Perkin-Elmer, USA).
(§4) The concentration of each of the compounds which induces the death of 50% of the cells (IC50) was determined after 72 hours of incubation. Certain compounds according to the invention have an IC50 of the order of one nanomolar concentration, therefore equivalent to CA-4 taken as a reference.
Background: The colour change of resazurin is a common sign of viable cells or microbes.

For the next experiment, the system named is A549. The experiment in a line: Study of cytotoxicity (CellTiter-Blue, 72 hours). The settings on record: Homo sapiens, A549; 72 hours of incubation; read-out: IC50 for different cell lines: A549. The format is cell-based. The procedure: as §1, §2, §3, §4
For the next experiment, the system named is HCT116. The experiment can be described thus: Study of cytotoxicity (CellTiter-Blue, 72 hours). The experiment is classed as cell-based. Particulars: Homo sapiens, HCT-116; 72 hours of incubation; read-out: IC50 for different cell lines: HCT116. The procedure:
as §1, §2, §3, §4

For a further experiment, the system named is MDA-MB 435. The experiment in a line: Study of cytotoxicity (CellTiter-Blue, 72 hours). The format is cell-based. Particulars: Homo sapiens, MDA-MB-435; 72 hours of incubation; read-out: IC50 for different cell lines: M435. As for the experimental part:
as §1, §2, §3, §4

The next experiment relates to K562 cells. The experiment can be described thus: Study of apoptosis (caspase-3/7 activity). The format is cell-based, human. Particulars: K562, 24 hours. As for the experimental part: (§5) In order to specify whether the compound (I-1) causes cell death by apoptosis, the intracellular enzymatic activity of caspases 3 and 7 was evaluated in cultures of K562, HCT116 and MDA-MB 231 cells exposed for 24 hours to the action of the compound (I-1).
(§6) Apoptosis is measured by using the kit “Apo-one homogeneous caspase-3/7 assay” (Promega Co., WI, USA) by following the recommendations of the manufacturer. Briefly, the cells are sown in 96-well culture plates with 50,000 cells per well in 100 μL of culture medium. After 24 hours of incubation, the medium is replaced with 100 μL of culture medium containing different concentrations of the compound […] or 0.1% DMSO (negative control). After 24 hours of treatment, 100 μL of reagent containing the substrate of the caspase and the buffer of the reaction are added into each well. After 1 hour of incubation, the fluorescence emitted by the cell is measured at 527 nm with a microplate reader of the Victor type (Perkin-Elmer, USA).

The next experiment relates to HCT116 cells. The experiment can be described thus: Study of apoptosis (caspase-3/7 activity). The experiment is classed as cell-based, human. The settings on record: HCT116, 24 hours. As for the experimental part:
as §5, §6

The next experiment has as its system MDA-MB 231 cells. The experiment can be described thus: Study of apoptosis (caspase-3/7 activity). Particulars: MDA-MB 231, 24 hours. The format is cell-based, human. As for the experimental part:
as §5, §6

Experiment [1] deals with human colon tumors LS174T xenografted in Nude mice. The experiment in a line: Antivascular activity in vivo (MRI, Dotarem entry into tumors). The settings on record: LS174T xenograft. As for the experimental part:
The antivascular effect of the molecule (I-1) was tested on mice bearing human tumors by comparison with the positive control DMXAA, according to the procedure described by Beauregard et al. (NMR Biomed., 2002, 15:99-105).
Thus, CD-1 Nude female mice were xenografted by subcutaneous injection of human colon tumoral cells (LS174T). The mice bearing tumors were then treated with 0.9% NaCl (carrier, 10 mL/kg), DMXAA (27.5 mg/kg) via an intraperitoneal route (IP) or the molecule (I-1) (45 mg/kg) via an intravenous route (IV). Three hours after administration, the mice were treated with the Dotarem® contrast agent intravenously (IV). The penetration of the contrast agent into the tumors was followed in real time by magnetic resonance imaging (MRI) and is expressed by an enhancement of the intensity of the signal in the tumors. Densitometric analysis of the acquired images allows determination of the maximum enhancement (Rmax) as well as the slope P0 corresponding to the entry rate of Dotarem® into the tumors.

The test system of another experiment is B16F10. The experiment can be described thus: Study of cytotoxicity (CellTiter-Blue, 72 hours). The experiment is classed as cell-based, human. The settings on record: Mus musculus, B16-F10; 72 hours of incubation; read-out: IC50 for different cell lines: B16F10. The procedure:
as §1, §2
The cells A549, U87, MDA-MB231, MDA-MB435 and B16F10 were grown in a culture medium “Dulbecco minimal essential medium” (DMEM) containing 4.5 g/L of glucose and supplemented with 10% fetal calf serum and 1% glutamine. […] Cell viability was evaluated by using the reagent “CellTiter-Blue™” (Promega, Wis., USA) while observing the instructions of the manufacturer. […] After 2 hours of incubation, the emitted fluorescence was measured at 590 nm after excitation at 560 nm by means of a fluorescence reader of the Victor type (Perkin-Elmer, USA). […]

[2] abbreviates: 3 hours after administration, DMXAA 27.5 mg/kg IP, (I-1) 45 mg/kg IV.

In the case of `C=C(c1ccc(OC)c(O)c1)c1cc(OC)c(OC)c(OC)c1` [(I-1)], the 50% inhibitory concentration (IC50) is 4 nM with MDA-MB 231; 8 nM in the experiment on A549; 2 to 4 nM in the experiment on HCT116; 4.5 nM in the experiment with MDA-MB 435; 2 nM in the experiment on B16F10. In addition, the “Induction of apoptosis (caspases 3 and 7)” value in the experiment on K562 cells, with HCT116 cells and with MDA-MB 231 cells was “strong induction of apoptosis” in each case. Moreover, the “Antivascular effect in vivo” value in experiment [1] (45 mg/kg IV) is recorded as “has an antivascular effect”. Moreover, the “Average of P0” value in experiment [1] (setting [2]) was determined as 1.53±0.82 arbitrary unit. Moreover, the “Average of Rmax” value in [1] (setting [2]) is 67.56±33.10 % of the NaCl control.
